In patent publication US20230052017A1, “New compounds for treatment of diseases related to DUX4 expression” (Facio Intellectual Property B.V., priority 2019, published 2023):

Each compound was assayed on DUX4 (assay: DUX4 repression assay in primary FSHD cells (protocol of Example 2 of WO2019/115711)). Details: incubated 72 hours, reference compounds.
Assay type: cell-based, human
Description: Following the central role of DUX4 in the consensus disease hypothesis for FSHD, a therapeutic approach with a disease-modifying potential is expected to rely on the inhibition of DUX4. The inventors have identified the compounds according to the invention as being able to achieve DUX4 repression in muscle cells. This invention has been made using primary FSHD patient-derived muscle cells. Because of the primate-specificity of the FSHD locus and questionable relevance of recombinant, immortalized, or tumorigenic cell or animal models to study endogenous DUX4 regulatory mechanisms, primary patient-derived muscle cells are the most relevant disease model. Assays based on immortalized cells bear the risk of altered epigenomes, thereby limiting their relevance in studying the endogenous regulation of DUX4 expression. Particularly the subtelomeric location of D4Z4 and the importance of the D4Z4 epigenome in the stability of DUX4 repression (Stadler et al., 2013, DOI: 10.1038/nsmb.2571) underscore the necessity of using primary muscle cells to discover physiologically relevant drug targets that regulate the expression of DUX4.
The DUX4 repression of compounds of general formula (I) was assayed following a known protocol (the protocol of Example 2 of WO2019/115711). Several compounds were incubated with primary FSHD cells for 72 hours. Results are shown in Table 4, showing DUX4 Count % inhibition.

Going from `CN1CCN(C(=O)Cc2nn(C(C)(C)C)c(-c3ccc(F)cc3)c2-c2ccncc2)CC1` [Compound 106, 2-[1-tert-butyl-5-(4-fluorophenyl)-4-(pyridin-4-yl)-1H-pyrazol-3-yl]-1-(4-methylpiperazin-1-yl)ethan-1-one] to `CN1CCN(C(=O)Cn2cnc(-c3ccc(F)cc3)c2-c2cccnc2)CC1` [Compound 107, 2-[4-(4-fluorophenyl)-5-(pyridin-3-yl)-1H-imidazol-1-yl]-1-(4-methylpiperazin-1-yl)ethan-1-one], the “DUX4 count % inhibition” value falls from 17.3% to 10.7%.

`O=C(Cn1cnc(-c2ccc(F)cc2)c1-c1cccnc1)N1CCNCC1` [Compound 108, 2-[4-(4-fluorophenyl)-5-(pyridin-3-yl)-1H-imidazol-1-yl]-1-(piperazin-1-yl)ethan-1-one] was tested, and the “DUX4 count % inhibition” value was 6.6%.
